Experimental data: patent publication US5990277A, “Semipeptoid farnesyl protein transferase inhibitors and analogs thereof” (Yissum Research Development Company of the Herbrew …, priority 1996, dated 1999)
Square brackets hold non-standard residues; d marks the D form. Ends that are not written are not given here. Peptide text beside a SMILES is read from it. * marks the point of attachment. N(3,4-(MeO)2phenethyl)Gly = COc1ccc(CCNCC(=O)O)cc1OC; Farnesyl = CC(C)=CCC/C(C)=C/CC/C(C)=C/C*; Gly(NCH2CH2Ph) = O=C(O)CNCCc1ccccc1; Gly(N-cHex) = O=C(O)CNC1CCCCC1; NMeV = CN[C@H](C(=O)O)C(C)C; N(iPr)Gly = CC(C)NCC(=O)O; Nphe = O=C(O)CNCc1ccccc1; Nleu = CC(C)CNCC(=O)O

What was measured:
[1] = target: T1, Farnesyl protein transferase (FT) (Bos taurus, UniProt P29702+P49355); experiment: Farnesyl protein transferase (FT) inhibition assay; format: biochemical, bovine; settings: for IC50: partially purified FT, Gst-HRas substrate
T1 construct: Partial purification of FT from bovine brain; from tissue; host or cells: bovine brain
Experimental: FT activity was quantified by measuring the incorporation of [^3 H]farnesyl from all-trans-[^3 H]farnesylpyrophosphate into purified Gst-HRas.
Partial purification of FT from bovine brain was performed essentially as described by Reiss at al. (Reiss et al, Cell, 1990, 62: 81), except that a fractogel DEAE column (150×16 mm, Merck) was used for the ion exchange chromatagraphy step. GST-HRas expression vector was constructed by cloning the Hras gene into a pGEX-1 vector, and expressed in E. coli strain TG1. The protein was purified using glutathione agarose (Sigma USA). FT inhibition assays were run in 96-well dishes in a reaction volume of […]. The final reaction mixture contained 5 mM GST-HRas, 0.9 mM [^3 H]farnesylpyrophosphate 20,000 dmp/pmol (NEN-Dupont), 1 mg of partially purified FT, 5 mM MgCl2, 3 mM ZnCl2, 40 mM TRIS.HCl pH 7.5, 60 mM NaCl, 1 mM DTT, 0.2 mM Glutathione, 0.03% Octyl-b-D-glucopyranoside, and serial dilutions of inhibitor.
Following incubation at 37° C. for 30 minutes the reactions were stopped by adding 100 ml of 4% sodium dodecyl sulfate (SDS) followed by 100 ml of 30% trichloroacetic acid (TCA). Plates were incubated for 100 minutes on ice, and the precipitates were filtered using a Millipore milliblot™-system (Millipore Corp., Bedford Mass.) with GF/C membranes. The wells were washed twice with 200 ml of 2% SDS/6% TCA and 7 times with […] of 6% TCA. The filters were punched into 4 ml vials and dried at 70° C. for 10 minutes. 3 ml of scintillation fluid was added and radioactivity was monitored by scintillation counting. IC50 values were resolved from dose-response curves of percent control versus log drug concentration, using the Regression program (Blackwell, UK). Each compound was tested 2-4 times.

[2] = target: T2, Geranylgeranyl transferase-I (GGT) (Bos taurus, UniProt P29702+Q5EAD5); experiment: Geranylgeranyl transferase-I (GGT) inhibition assay; format: biochemical, bovine; settings: partially purified GGT, Gst-HRas-CVLL substrate
T2 construct: GGT was partially purified from bovine brain; from tissue; host or cells: bovine brain cytosol
Source text: The second assay estimated the selectivity of the inhibitor towards FT over a related enzyme, geranylgeranyl-protein-transferase-I (GGT), which transfers a C20 -isoprenoid to a thiol group of cysteine of a C-terminal CAAL (SEQ ID NO:17) peptide sequence derived from geranylgeranylpyrophosphate. Geranylgeranylation of normal cellular proteins is 5-10 times more common than farnesylation (Gibbs et al., Cell, 1994, 77: 175; Gibbs, Cell, 1991, 65: 1; Maltese,. FASEB J., 1990, 4: 3319).
A selective FT-inhibitor is considered to cause fewer cytotoxic effects than a nonselective inhibitor of both FT and GGT. GGT activity, for the partially purified GGT enzyme (Moores et al., J. Biol. Chem., 1991, 266: 14603), was quantified by measuring the incorporation of [^3 H]geranylgeranyl from all trans [^3 H]geranylgeranylpyrophosphate, into purified Gst-HRas-CVLL.
GGT was partially purified from bovine brain. Cytosol was prepared and GGT was isolated using a fractogel DEAE column (150×16 mm, Merck) with NaCl gradient, as for FT purification (see Example 15 above). Fractions containing the GGT activity were pooled and stored at -70° C. Hras gene was point mutated using an oligonucleotide directed in vitro mutagenesis system (Amersham version 2.1). The mutated Hras gene was cloned into the GST--frame of a pGEX-1 expression vector, expressed in E. coli strain TG1, and a fusion protein Gst-HRas-CVLL (SEQ ID NO:22) was purified on glutathione agarose.

FT = target: T3, FT (Bos taurus, UniProt P29702+P49355); experiment: Inhibitor farnesylation assay (alternative substrate); format: biochemical, bovine; settings: incubated with FT and [3H]farnesylpyrophosphate in the absence of Ras
T3 construct: Partial purification of FT from bovine brain; from tissue; host or cells: bovine brain
Experimental: The third assay checked whether the inhibitor itself undergoes farnesylation. For this purpose, the inhibitor was incubated with the FT enzyme and [^3 H]farnesylpyrophosphate in the absence of Ras.
For examination whether the inhibitors undergo farnesylation a previously described procedure (Goldstein et al., J. Biol. Chem., 1991, 266: 15575) was used. Each reaction mixture contained the following components in a final volume of […]: 40 mM TRIS.HCl pH 7.5, 67 mM NaCl, 5 mM MgCl2, 7 mM ZnCl2, 1 mM DTT, 0.07% (v/v) octyl-b-D-glucopyranoside, 20 pmol of [^3 H]farnesylpyrophosphate 45,000 dpm/pmol, 4 mM peptide or peptoid, and 1 mg of partially purified FT. After incubation at 37° C. for 30 minutes, the entire reaction mixture was spotted onto an aluminum backed Silica Gel thin layer sheet (20×20 cm, Merck), and placed in a tank containing n-propyl-alcohol/ammonium hydroxide/water (6:3:1, v/v/v). The chromatogram was run for 4 hours, sprayed with EN^3 HANCE (Dupont) and exposed to RX film (FUJI) for 4 days at -70° C.

[3] = target: farnesyl protein transferase (Homo sapiens, UniProt P49354+P49356); settings: cited from earlier work; for farnesyl protein transferase inhibitory potency in vitro: literature
[4] = tested on: Ras processing in cells transformed with v-ras; settings: cited from earlier work
[5] = tested on: Ras processing in v-Ha-ras transformed NIH3T3 cells; experiment: Protein processing assay in intact cells: Ras; format: cell-based; settings: 48 hr incubation, western blot
Experimental: Its selectivity towards FT as compared to GGT in whole cells, was determined by its relative inhibitory effects on Ras farnesylation and on Rap1A/Krev geranylgeranylation (Casey, J. Lipid Res. 1992, 33, 1731-1740; Cox et al., Curr. Opin. Cell Biol. 1992, 4, 1008-1016; Garcia et al., J. Biol. Chem. 1993, 268, 18415-18418; and Vogt et al., J. Biol. Chem. 1995, 270, 660-664), respectively. v-Ha-ras transformed NIH3T3 cells were incubated with lovastatin or increasing concentrations of the inhibitor. Cells were lysed and the processed and unprocessed forms of Ras or Rap1A were separated by SDS-PAGE and immunoblotted with anti-Ras or anti-Rap1A antibodies, respectively. Lovastatin is a compound which blocks the processing of isoprenylated proteins in cells by inhibiting an early step of the isoprenoid biosynthetic pathway, and therefore serves as a positive control for the inhibition of both geraylgeranylation and farnesylation (Kohl et al., Science 1993, 260, 1934-1937; Garcia et al., J. Biol. Chem. 1993, 268, 18415-18418; Vogt et al., J. Biol. Chem. 1995, 270, 660-664).
After 48 hr of incubation, cell extracts were separated on SDS-PAGE and immunoblotted with anti-Ras antibody.
Cells were lysed (Garcia et al., J. Biol. Chem. 1993, 268, 18415-18418) in 1% Nonidet P-40, 5 mM TRIS.HCl pH 8.0, 5 mM EDTA, 1 mM phenylmethylsulfonyl fluoride, 10 mg/ml aprotonin, 10 mg/ml soybean trypsin inhibitor and 313 mg/ml benzamidine. The lysate was separated by centriflgation and the supernatant used as cell extract. Total protein was separated by SDS-PAGE (40 mg/lane) in 15% acrylamide (0.4% bis-acrylamide) gels, transferred onto nitrocellulose (Schleicher & Schuell, optitran BA-S 85) and probed with anti-Ras antibody Y13-259, or monoclonal anti-Rap1A/K-rev antibody (transduction laboratories). The western blots were visualized using an enhanced chemiluminescence (ECL) detection system.

[6] = tested on: Rap1A/K-rev processing in v-Ha-ras transformed NIH3T3 cells; experiment: Protein processing assay in intact cells: Rap1A/K-rev; format: cell-based
Experimental: Its selectivity towards FT as compared to GGT in whole cells, was determined by its relative inhibitory effects on Ras farnesylation and on Rap1A/Krev geranylgeranylation (Casey, J. Lipid Res. 1992, 33, 1731-1740; Cox et al., Curr. Opin. Cell Biol. 1992, 4, 1008-1016; Garcia et al., J. Biol. Chem. 1993, 268, 18415-18418; and Vogt et al., J. Biol. Chem. 1995, 270, 660-664), respectively. v-Ha-ras transformed NIH3T3 cells were incubated with lovastatin or increasing concentrations of the inhibitor. Cells were lysed and the processed and unprocessed forms of Ras or Rap1A were separated by SDS-PAGE and immunoblotted with anti-Ras or anti-Rap1A antibodies, respectively.
To test the selectivity of compound 12 towards FT in whole cells, the post-translational processing of an endogenous geranylgeranylated protein, Rap1A/K-rev, was analyzed.
v-Ha-ras transformed NIH3T3 fibroblasts were treated with 15 mM lovastatin or the indicated concentrations of compound 12 or vehicle (0.25 mM DTT, 0.25% DMSO), for 48 hr. Cells were lysed (Garcia et al., J. Biol. Chem. 1993, 268, 18415-18418) in 1% Nonidet P-40, 5 mM TRIS.HCl pH 8.0, 5 mM EDTA, 1 mM phenylmethylsulfonyl fluoride, 10 mg/ml aprotonin, 10 mg/ml soybean trypsin inhibitor and 313 mg/ml benzamidine. The lysate was separated by centriflgation and the supernatant used as cell extract. […]

Row | Compound | IC50 [1] | IC50 [2] | alternative substrate (inhibitor itself farnesylated) (FT) | other results
1 | COc1ccc(CCN(CC(=O)N[C@@H](CCSC)C(=O)O)C(=O)[C@@H](NC(=O)[C@@H](N)CS)C(C)C)cc1OC [Semipeptoid 3, cysteinyl-valyl-(Nα-3,4-dimetoxyphenethyl)glycyl-methionine] (H-CV[N(3,4-(MeO)2phenethyl)Gly]M-OH) | 0.12 µM | 23 µM | no | times more potent than compound 6 (FT) ([1]; versus compound 6): 33 times
2 | CSCC[C@H](NC(=O)CN(Cc1ccccc1)C(=O)CN(C(=O)[C@@H](N)CS)C(C)C)C(=O)O [Semipeptoid 5, cysteinyl-(Nα-isopropyl)glycyl-(Nα-benzyl)glycyl-methionine] (H-C[N(iPr)Gly][Nphe]M-OH) | 13 µM | 190 µM | no | –
3 | CVLS: CAAX tetrapeptide (SEQ ID NO:18); the result concerns its farnesylated form (C(Farnesyl)VLS) | – | – | – | fold less potent as inhibitor: farnesylated peptide versus its corresponding tetrapeptide ([3]; farnesylated form of the peptide): about 13 fold
4 | CC[C@H](C)[C@H](NC[C@@H](NC[C@@H](N)CS)[C@@H](C)CC)C(=O)N[C@@H](CCO)C(=O)O [L-731,735, N-{2(S)-[2(R)-amino-3-mercaptopropylamino]-3(S)-methylpentyl}isoleucyl-homoserine] | – | – | – | farnesyl protein transferase inhibitory potency in vitro [3]: potent and selective inhibitor; effect on Ras processing in cells [4]: no effect on Ras processing
5 | methyl ester Derivative of cysteinyl-(Nα-methyl)valyl-(Nα-cyclohexyl)glycyl-methionine [Semipeptoid 12] | – | – | – | concentration range of dose dependent shift of Ras towards its unprocessed form [5]: 1 to 160 mM; IC50 ([5]; read-out: in situ IC50 (shift of Ras towards its unprocessed form)): 10 µM; effect on Rap1A/K-rev processing [6]: not affected
6 | CSCC[C@H](NC(=O)CN(Cc1ccccc1)C(=O)CN(CCN(C)C)C(=O)[C@@H](N)CS)C(=O)O [Semipeptoid 7, cysteinyl-(Nα(N,N-dimethylaminoethyl))glycyl-(Nα-benzyl)glycyl-methionine] | 3 µM | 40 µM | no | –
7 | CSCC[C@H](NC(=O)[C@H](Cc1ccccc1)NC(=O)CN(CCN(C)C)C(=O)[C@@H](N)CS)C(=O)O [Semipeptoid 9, cysteinyl-(Nα(N,N-dimethylaminoethyl))glycyl-phenylalanyl-methionine] | 4 µM | > 400 µM | no | –
8 | CSCC[C@H](NC(=O)CN(C(=O)[C@H](C(C)C)N(C)C(=O)[C@@H](N)CS)C1CCCCC1)C(=O)O [Semipeptoid 11, cysteinyl-(Nα-methyl)valyl-(Nα-cyclohexyl)glycyl-methionine] (H-C[NMeV][Gly(N-cHex)]M-OH) | 0.0012 µM | 0.91 µM | – | increase of selectivity versus compound 4 ([1]; FT over GGT, versus compound 4): 11 fold; IC50 (GGT)/IC50 (FT) ([1]; selectivity ratio): 758; improvement of potency versus compound 4 (FT) ([1]; versus compound 4): 58 fold; alternative substrate (inhibitor itself farnesylated) (FT; listed as 11): no; alternative substrate (inhibitor itself farnesylated) (FT; listed as compound 11): non-farnesylated
9 | CSCC[C@H](NC(=O)[C@H](Cc1ccccc1)NC(=O)CN(C(=O)[C@@H](N)CS)C(C)C)C(=O)O [Semipeptoid 8, cysteinyl-(Nα-isopropyl)glycyl-phenylalanyl-methionine] (H-C[N(iPr)Gly]FM-OH) | 50 µM | 155 µM | no | –
10 | COc1ccc(CCN(CC(=O)N[C@@H](CCSC)C(=O)O)C(=O)CN(C(=O)[C@@H](N)CS)C(C)C)cc1OC [Semipeptoid 6, cysteinyl-(Nα-isopropyl)glycyl-(Nα-3,4-dimetoxyphenethyl)glycyl-methionine] (H-C[N(iPr)Gly][N(3,4-(MeO)2phenethyl)Gly]M-OH) | 4 µM | 80 µM | no | –
11 | CSCC[C@H](NC(=O)CN(CCc1ccccc1)C(=O)[C@@H](NC(=O)[C@@H](N)CS)C(C)C)C(=O)O [Semipeptoid 2, cysteinyl-valyl-(Nα-phenethyl)glycyl-methionine] (H-CV[Gly(NCH2CH2Ph)]M-OH) | 0.32 µM | 30 µM | no | reduction of relative potency versus compound 1 (FT) ([1]; versus compound 1): 3.2 fold
12 | CSCC[C@H](NC(=O)CN(C(=O)[C@@H](NC(=O)[C@@H](N)CS)C(C)C)C1CCCCC1)C(=O)O [Semipeptoid 4, cysteinyl-valyl-(Nα-cyclohexyl)glycyl-methionine] (H-CV[Gly(N-cHex)]M-OH) | 0.07 µM | 5 µM | no | –
13 | CSCC[C@H](NC(=O)CN(Cc1ccccc1)C(=O)[C@@H](NC(=O)[C@@H](N)CS)C(C)C)C(=O)O [Semipeptoid 1, cysteinyl-valyl-(Nα-benzyl)glycyl-methionine] (H-CV[Nphe]M-OH) | 0.1 µM | 40 µM | no | fold more potent than compound 5 (FT) ([1]; versus compound 5): 130 fold; fold more potent than compound 8 (FT) ([1]; versus compound 8): 500 fold
14 | CSCC[C@H](NC(=O)[C@H](Cc1ccccc1)NC(=O)CN(CC(C)C)C(=O)[C@@H](N)CS)C(=O)O [Semipeptoid 10, cysteinyl-(Nα-isobutyl)glycyl-phenylalanyl-methionine] (H-C[Nleu]FM-OH) | 75 µM | 240 µM | no | –
15 | CC[C@H](C)[C@@H](CO[C@@H](Cc1ccccc1)C(=O)N[C@@H](CCS(C)(=O)=O)C(=O)O)NC[C@@H](N)CS [L-739,750] | – | – | – | farnesyl protein transferase inhibitory potency in vitro [3]: potent inhibitor
